Bridge positions count the residues as written; N and C are the ends. Peptide text beside a SMILES is read from it.
How the values were obtained:
Kv1.4/Y416A = assay: Whole-cell patch clamp, Tyr-to-Ala mutant homologous to Kv1.3 Y339; format: cell-based, rat; conditions: 10 μM MrVIII, +30 mV, 500 ms, holding −80 mV, mean ± SD, n = 4–6
Text: (§1) Building on the identification of key amino acid residues in Kv1.3 channel that interact with MrVIII through alanine-scanning mutagenesis, we extended our analysis to explore these residues across other Kv1 subfamily channels. […] However, MrVIII retained substantial inhibitory potency on Kv1.2/Y266A mutant, albeit without fully blocking the channel current. […] The profound reduction in MrVIII's effect across homologous mutants supports the idea that it binds to a conserved region.
(§2) The cDNA of hKv1.1, hKv1.2, hKv1.3, rKv1.4, hKv1.5, mKv1.6, and hKv1.7 were subcloned into mammalian expression vectors pcDNA3.1 or pCMV-blank vectors, as well as other plasmids described previously ([35]). Channel mutants were generated by site-directed mutations. Briefly, the parental channel plasmid was amplified using a pair of oppositely directed primers harboring the designed mutation site, with KOD Fx (TOYOBO Co, Ltd). The resulting PCR mix was treated with FastDigest DpnI (Thermo Fisher Scientific) to remove the methylated template. […]
(§3) CHO-K1 cells were selected for expressing Kv channels due to their lack of endogenous Kv channels, while HEK293 or ND7/23 cells were used for Nav and Cav channel expression. […] After 4 to 6 h transfection, cells were seeded onto poly-lysine–coated coverslips, and 24 to 36 h later, transfected cells were ready for patch-clamp analysis. […]

hKv1.2 = biological target: T1, hKv1.2 (Homo sapiens, UniProt P16389); assay: Whole-cell patch clamp, Kv1.2 ionic current in CHO-K1 cells; format: cell-based; conditions: +30 mV, 500 ms, holding −80 mV, mean ± SD, n = 4–7, read-out: IC50, inhibition of Kv1.2 current (full inhibition)
T1 construct: expressed in transfected cells; host or cells: CHO-K1
Method: as §2, with “template. Ten microliters of the digested product was then used to transform 100 μl E. coli DH5α competent cells.” for “template.”
as §3
For Kv current recordings, the bath solution contained (in mM) the following: 140 NaCl, 5 KCl, 1 MgCl2, 2 CaCl2, 10 glucose, and 10 Hepes (pH 7.3, adjusted with NaOH), and the pipette solution contained (in mM) the following: 140 KCl, 2.5 MgCl2, 11 EGTA, and 10 Hepes (pH 7.3, adjusted with KOH). […] The steady-state fast inactivation of Kv1.3 was measured using a two-pulses protocol. […]

Kv1.7/Y253A = assay: Whole-cell patch clamp, Tyr-to-Ala mutant homologous to Kv1.3 Y339; format: cell-based, human; conditions: 10 μM MrVIII, +30 mV, 500 ms, holding −80 mV, mean ± SD, n = 4–6
Text: as §1
as §2, with “template. Ten microliters of the digested product was then used to transform 100 μl E. coli DH5α competent cells.” for “template.”
as §3
(§4) For Kv current recordings, the bath solution contained (in mM) the following: 140 NaCl, 5 KCl, 1 MgCl2, 2 CaCl2, 10 glucose, and 10 Hepes (pH 7.3, adjusted with NaOH), and the pipette solution contained (in mM) the following: 140 KCl, 2.5 MgCl2, 11 EGTA, and 10 Hepes (pH 7.3, adjusted with KOH). […] Whole cell conductance (G) at each depolarizing voltage (V) was determined using the equation: G = I/(V−Vrev), where I is the current amplitude, and Vrev is the reversal potential. […] The steady-state fast inactivation of Kv1.3 was measured using a two-pulses protocol. […]

Kv1.5/Y368A = assay: as above; format: cell-based, human; conditions: 10 μM MrVIII, +30 mV, 500 ms, holding −80 mV, mean ± SD, n = 4–6
Text: as §1
as §2, with “template. Ten microliters of the digested product was then used to transform 100 μl E. coli DH5α competent cells.” for “template.”
as §3, §4

Kv1.1/Y256A = assay: as above; format: cell-based, human; conditions: 10 μM MrVIII, +30 mV, 500 ms, holding −80 mV, mean ± SD, n = 4–6
Text: as §1
as §2, with “template. Ten microliters of the digested product was then used to transform 100 μl E. coli DH5α competent cells.” for “template.”
as §3, §4

T1 sequence (P16389 whole entry): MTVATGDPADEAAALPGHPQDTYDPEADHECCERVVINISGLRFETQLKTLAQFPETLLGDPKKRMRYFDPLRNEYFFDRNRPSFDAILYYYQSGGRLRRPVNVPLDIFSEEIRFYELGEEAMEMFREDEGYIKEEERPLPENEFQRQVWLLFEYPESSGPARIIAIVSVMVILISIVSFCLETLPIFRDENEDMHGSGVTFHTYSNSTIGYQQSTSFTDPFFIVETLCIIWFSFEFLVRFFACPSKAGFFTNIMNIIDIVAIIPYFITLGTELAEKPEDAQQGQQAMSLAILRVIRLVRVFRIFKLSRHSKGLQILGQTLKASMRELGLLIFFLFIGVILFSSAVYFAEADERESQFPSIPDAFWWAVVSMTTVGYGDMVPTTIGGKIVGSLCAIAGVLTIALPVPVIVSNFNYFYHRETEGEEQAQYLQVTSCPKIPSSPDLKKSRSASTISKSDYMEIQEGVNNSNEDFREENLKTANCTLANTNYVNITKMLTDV

`CC[C@H](C)[C@@H]1NC(=O)[C@H](Cc2ccc(O)cc2)NC(=O)[C@H](CCC(N)=O)NC(=O)[C@@H]2CCCN2C(=O)[C@@H]2CSSC[C@H](NC(=O)[C@H](C)NC(=O)[C@H](CO)NC(=O)[C@H](CCC(=O)O)NC(=O)[C@H](CCC(=O)O)NC(=O)[C@@H](N)[C@@H](C)O)C(=O)NCC(=O)NCC(=O)N[C@@H](Cc3ccccc3)C(=O)N[C@@H](CC(N)=O)C(=O)N[C@@H](C)C(=O)N[C@@H](CCCNC(=N)N)C(=O)N[C@H]3CSSC[C@H](NC1=O)C(=O)N[C@@H](CCCCN)C(=O)NCC(=O)N[C@@H](Cc1c[nH]c4ccccc14)C(=O)N[C@@H](CCCNC(=N)N)C(=O)N[C@@H]([C@@H](C)O)C(=O)N[C@@H](CCCCN)C(=O)N[C@@H](CCCNC(=N)N)C(=O)N[C@H](C(=O)N[C@@H](CC(C)C)C(=O)N[C@@H](CC(N)=O)C(=O)N1CCC[C@H]1C(=O)O)CSSC[C@H](NC(=O)[C@H](CCCCN)NC(=O)[C@H](Cc1c[nH]cn1)NC(=O)[C@H](CC(C)C)NC(=O)[C@@H]1CCCN1C3=O)C(=O)N2` [MrVIII] (H-TEESACGGFNARCPLHKCCPQYICKGWRTKRCLNP-OH; disulfide 6-19, 13-24, 18-32; N-terminus and C-terminus assumed) was tested, and the “inhibition of Kv1.4/Y416A current” value (Kv1.4/Y416A) was 63.5 ± 18.4%, the IC50 (hKv1.2) was 0.5 ± 0.1 nM and the “inhibition of Kv1.7/Y253A current” value (Kv1.7/Y253A) was −9.4 ± 13.6%. For the same molecule, the “inhibition of Kv1.5/Y368A current” value (Kv1.5/Y368A) was 19.1 ± 6.2% and the “inhibition of Kv1.1/Y256A current” value (Kv1.1/Y256A) was −9.5 ± 4.4%.

— article PMC11984586, “A novel spider toxin as a selective antagonist of the Kv1 subfamily of voltage-gated potassium channels through gating modulation” (The Journal of Biological Chemistry, 2025)
